From ChEMBL document CHEMBL1201862, “PubChem BioAssay data set” (2004)
Activity calls are given as the source filed them.

Legend:
[1] = target: Luciferin 4-monooxygenase (Photinus pyralis, UniProt P08659); test: firefly luciferase enzyme inhibitors, dose response, biochemical, luminescence (AID 1891)
[2] = target: T1, fMet-Leu-Phe receptor (Homo sapiens, UniProt P21462); test: FPR ligands, dose response (AID 519); type: functional
T1 sequence (P21462 whole entry): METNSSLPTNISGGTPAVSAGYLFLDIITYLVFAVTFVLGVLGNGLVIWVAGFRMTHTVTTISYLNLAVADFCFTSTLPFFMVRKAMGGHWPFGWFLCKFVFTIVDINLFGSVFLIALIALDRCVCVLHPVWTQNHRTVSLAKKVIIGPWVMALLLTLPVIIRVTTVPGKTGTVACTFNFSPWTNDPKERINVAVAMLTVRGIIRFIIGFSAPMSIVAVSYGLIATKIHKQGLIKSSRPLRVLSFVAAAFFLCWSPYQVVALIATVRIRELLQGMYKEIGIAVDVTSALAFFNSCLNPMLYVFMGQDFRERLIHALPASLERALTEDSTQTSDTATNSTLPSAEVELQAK

[3] = Luminescence Cell-Based Dose Confirmation HTS to Identify Inhibitors of Platelet Dense Granule Release. [Related pubchem assays: 1663 (Primary HTS), 1678 (Summary of Project)]; type: functional
[4] = target: Cytochrome P450 2C9 (Homo sapiens, UniProt P11712); details: Potency
[5] = target: T2, Protein Tat (Human immunodeficiency virus type 1 group M subtype B (isolate HXB2)(HIV-1), UniProt P04608); type: functional;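 note: tat binding to TAR RNA read out by fluorescence polarization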
T2 sequence (P04608 whole entry): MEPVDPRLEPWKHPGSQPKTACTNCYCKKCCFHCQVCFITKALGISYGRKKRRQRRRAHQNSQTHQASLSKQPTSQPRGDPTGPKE

[6] = THP-1 cell cytotoxicity, dose response, cytotoxicity control for Vif-APOBEC3G degradation inhibitor project, THP-1 cells (AID 1117359); type: functional; details: Human immunodeficiency virus 1, THP-1
[7] = A375 melanoma cell cytotoxicity, dose response, counter-screen for MITF inhibitor project, CellTiter-Glo luminescence, dry powder, set 2 (AID 624489); type: functional, cell-based; details: A-375;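 note: actives are compounds lowering A375 viability meaning general cytotoxicity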
[8] = A375 melanoma cell viability loss, dose response, counter-screen for MITF inhibitor project, CellTiter-Glo luminescence, dry powder, set 4 (AID 624364); type: functional, cell-based; details: A-375;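 note: A375 melanoma cells are MITF independent so this is a counter screen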
[9] = HEp-2 cell cytotoxicity, dose response, cytotoxicity control for RSV inhibitor project, HTS (AID 2410); type: functional; details: human respiratory syncytial virus
[10] = cells
[11] = P. falciparum Dd2 growth inhibitors, dose response, SYBR Green, cherry-picked samples (AID 1159567); type: functional, cell-based
[12] = HepG2 cell cytotoxicity, dose response, cytotoxicity control, cherry-picked samples (AID 1159577); type: functional, cell-based
[13] = P. falciparum ATP4 D1247Y mutant growth inhibitors, dose response, NITD609-resistant line, SYBR Green, dry powder (AID 1159571); type: functional, cell-based;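 note: parasites synchronized at ring stage by sorbitol before testing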
[14] = P. falciparum Dd2 growth inhibitors, dose response, SYBR Green, dry powder samples (AID 1159566); type: functional, cell-based;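 note: potency for growth inhibition with lower SYBR green DNA signal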
[15] = P. falciparum 3D7-ScDHODH growth inhibitors, dose response, SYBR Green, dry powder samples (AID 1159570); type: functional, cell-based;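 note: parasite growth measured after 72 hours of compound exposure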
[16] = target: T3, Leucine aminopeptidase (Plasmodium falciparum 3D7, UniProt Q8IL11); test: P. falciparum M17LAP inhibitors, primary screen, biochemical, fluorogenic H-Leu-NHMec substrate, 1536-well (AID 1619); type: functional
T3 sequence (Q8IL11 whole entry): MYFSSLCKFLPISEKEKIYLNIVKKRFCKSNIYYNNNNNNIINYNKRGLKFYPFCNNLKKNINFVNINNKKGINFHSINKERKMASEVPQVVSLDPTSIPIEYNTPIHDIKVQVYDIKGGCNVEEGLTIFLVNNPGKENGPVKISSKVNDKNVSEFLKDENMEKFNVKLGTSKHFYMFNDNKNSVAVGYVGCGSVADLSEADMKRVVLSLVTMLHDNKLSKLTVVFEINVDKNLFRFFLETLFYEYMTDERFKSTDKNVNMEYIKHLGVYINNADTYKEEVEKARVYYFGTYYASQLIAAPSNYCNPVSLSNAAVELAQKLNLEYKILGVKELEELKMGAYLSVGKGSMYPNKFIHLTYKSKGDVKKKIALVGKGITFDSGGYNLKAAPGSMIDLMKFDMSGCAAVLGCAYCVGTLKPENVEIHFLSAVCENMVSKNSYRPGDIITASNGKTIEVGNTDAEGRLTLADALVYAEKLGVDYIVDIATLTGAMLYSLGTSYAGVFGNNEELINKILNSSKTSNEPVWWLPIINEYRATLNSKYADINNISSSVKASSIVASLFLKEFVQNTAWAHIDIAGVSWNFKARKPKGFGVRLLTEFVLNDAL

[17] = P. falciparum Dd2 growth inhibitors, dose response, SYBR Green, dry powder samples, set 9 (AID 1159568); type: functional, cell-based
[18] = target: Nonstructural protein 1 (Influenza A virus, UniProt Q194T2); type: functional, Influenza A virus (A/California/07/2009(H1N1))
[19] = target: T4, Rac GTPase-activating protein 1 (Homo sapiens, UniProt Q9H0H5); test: MgcRacGAP GTPase-activating activity inhibitors, confirmation, biochemical, ADP Hunter fluorescence, primary and confirmatory (AID 624330); type: functional
T4 sequence (Q9H0H5 whole entry): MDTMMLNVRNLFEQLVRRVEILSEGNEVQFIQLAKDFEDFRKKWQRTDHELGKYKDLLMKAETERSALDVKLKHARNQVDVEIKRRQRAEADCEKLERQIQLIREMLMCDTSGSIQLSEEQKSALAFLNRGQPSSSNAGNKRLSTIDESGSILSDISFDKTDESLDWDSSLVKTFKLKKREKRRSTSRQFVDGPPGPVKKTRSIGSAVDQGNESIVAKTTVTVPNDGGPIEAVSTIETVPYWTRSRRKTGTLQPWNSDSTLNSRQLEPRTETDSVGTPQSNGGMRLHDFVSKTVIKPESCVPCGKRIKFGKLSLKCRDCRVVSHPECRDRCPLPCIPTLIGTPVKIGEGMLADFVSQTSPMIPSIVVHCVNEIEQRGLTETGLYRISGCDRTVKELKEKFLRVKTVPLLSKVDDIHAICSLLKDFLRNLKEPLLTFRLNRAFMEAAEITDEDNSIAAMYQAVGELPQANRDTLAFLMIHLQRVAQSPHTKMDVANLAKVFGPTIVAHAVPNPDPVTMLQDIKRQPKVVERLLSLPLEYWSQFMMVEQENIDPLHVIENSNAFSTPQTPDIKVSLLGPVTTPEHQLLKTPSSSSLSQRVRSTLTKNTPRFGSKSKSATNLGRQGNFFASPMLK

Sequence of Cytochrome P450 2C9 (P11712 whole entry): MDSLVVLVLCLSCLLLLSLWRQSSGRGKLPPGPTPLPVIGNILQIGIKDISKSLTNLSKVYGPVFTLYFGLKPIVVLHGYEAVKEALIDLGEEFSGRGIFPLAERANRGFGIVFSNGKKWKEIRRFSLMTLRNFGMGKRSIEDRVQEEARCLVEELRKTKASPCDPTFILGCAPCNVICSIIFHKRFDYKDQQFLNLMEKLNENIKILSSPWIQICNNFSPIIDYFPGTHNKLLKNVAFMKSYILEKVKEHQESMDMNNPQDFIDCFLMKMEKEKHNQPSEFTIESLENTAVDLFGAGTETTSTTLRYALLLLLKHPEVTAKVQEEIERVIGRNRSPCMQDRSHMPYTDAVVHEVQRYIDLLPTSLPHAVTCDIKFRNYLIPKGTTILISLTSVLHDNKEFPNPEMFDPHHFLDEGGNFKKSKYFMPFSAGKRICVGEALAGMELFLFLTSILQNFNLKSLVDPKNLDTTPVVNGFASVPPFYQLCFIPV
Sequence of Luciferin 4-monooxygenase (P08659 whole entry): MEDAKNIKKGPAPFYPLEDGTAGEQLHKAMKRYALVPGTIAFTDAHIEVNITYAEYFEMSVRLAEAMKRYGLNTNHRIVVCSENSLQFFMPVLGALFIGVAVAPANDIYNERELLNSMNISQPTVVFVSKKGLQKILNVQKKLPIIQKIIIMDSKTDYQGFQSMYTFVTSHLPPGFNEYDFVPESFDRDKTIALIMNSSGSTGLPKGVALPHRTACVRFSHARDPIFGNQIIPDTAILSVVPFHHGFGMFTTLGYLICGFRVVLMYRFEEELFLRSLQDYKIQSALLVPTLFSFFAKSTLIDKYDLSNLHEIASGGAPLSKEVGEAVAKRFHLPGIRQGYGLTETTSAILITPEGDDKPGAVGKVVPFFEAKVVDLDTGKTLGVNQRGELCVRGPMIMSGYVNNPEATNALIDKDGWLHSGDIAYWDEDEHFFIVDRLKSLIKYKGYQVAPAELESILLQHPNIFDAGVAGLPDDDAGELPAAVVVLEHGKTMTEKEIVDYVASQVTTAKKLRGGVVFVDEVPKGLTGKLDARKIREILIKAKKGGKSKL
Sequence of Nonstructural protein 1 (Q194T2 whole entry): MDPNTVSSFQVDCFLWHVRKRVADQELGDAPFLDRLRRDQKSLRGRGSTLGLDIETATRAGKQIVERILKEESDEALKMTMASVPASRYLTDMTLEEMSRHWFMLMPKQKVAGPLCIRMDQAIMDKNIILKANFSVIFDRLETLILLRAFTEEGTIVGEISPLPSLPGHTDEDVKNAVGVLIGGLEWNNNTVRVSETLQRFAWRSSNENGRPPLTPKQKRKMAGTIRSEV

Q: With `O=C(Cn1cnc2c(cnn2-c2ccc(F)cc2)c1=O)OCc1ccccc1` as the compound, how does the EC50 [1] read?
A: > 112 µM (not active)

Q: What about the Ki [2] of the same compound?
A: > 66.7 µM (inactive)

Q: And the EC50 [3]?
A: > 112 µM (not active)

Q: With `CCCCC#CC1C=CC(Oc2cc(OC)c(OC)c(OC)c2)C(COC(=O)OCC)O1` (centres undefined) as the compound, how does the AC50 [4] read?
A: 6.31 µM (inconclusive)

Q: For `C[C@@H]1CN([C@@H](C)CO)C(=O)c2cc(NC(=O)Nc3ccccc3)ccc2O[C@@H](C)CCCCO[C@H]1CN(C)C(=O)Nc1ccc(C(F)(F)F)cc1`, which IC50 [5] is on record?
A: > 100 µM (active)

Q: What about the CC50 [6] of the same compound?
A: 36.3 µM (active)

Q: Which AC50 [7] does the source give for `O=C(NC1=C(N2CCSCC2)C(=O)c2ccccc2C1=O)c1ccc(Br)cc1` here?
A: 49.9 µM (active)

Q: What about the AC50 [8] of the same compound?
A: > 70 µM (inactive)

Q: Which results are given for `O=C1C(NS(=O)(=O)c2ccc(Br)cc2)=C(c2ccccc2)C(=O)c2ccccc21`?
A: AC50 [7]: > 70 µM (inactive); AC50 [8]: > 70 µM (inactive)

Q: For `Cc1ccc(C2C(C(=O)c3cnn(-c4ccccc4)c3C)=C(O)C(=O)N2CCN2CCOCC2)o1` (centres undefined), which Ki [2] is on record?
A: 23.2 µM (inactive)

Q: With `CC(C)C[C@@H](CC(=O)N[C@@H](CCCN)CC(=O)N[C@@H]1CCCC[C@H]1C(=O)N[C@H](CC(=O)N[C@@H](CCC(=O)O)CC(=O)O)Cc1c[nH]c2ccccc12)NC(=O)[C@@H]1CCCC[C@H]1N` as the compound, how does the AC50 [4] read?
A: 39.8 µM (inconclusive)

Q: With `c1ccc(CCn2c3ccccc3c3nnc(SCc4ccc5nonc5c4)nc32)cc1` as the compound, how does the CC50 [9] read?
A: 22.3 µM (active)

Q: And the IC50 [10]?
A: 28.3 µM (active)

Q: Which AC50 [11] does the source give for `C[C@@H]1CN([C@@H](C)CO)C(=O)c2c(c3ccccc3n2C)-c2ccccc2CO[C@@H]1CN(C)Cc1ccccc1C(F)(F)F` here?
A: 1.47 µM (active)

Q: And the AC50 [12]?
A: 8.34 µM (active)

Q: For `N#C[C@@H]1[C@H](c2ccccc2C2=CCCCC2)[C@@H](CO)N1C(=O)c1cccc(F)c1`, which AC50 [13] is on record?
A: 7.9 µM (active)

Q: What about the AC50 [11] of the same compound?
A: 2.74 µM (active)

Q: What about the AC50 [14] of the same compound?
A: 1.93 µM (active)

Q: What about the AC50 [15] of the same compound?
A: 2.12 µM (active)

Q: With `O=C1CCCN1c1ccc(C(=O)N(Cc2nnc(-c3ccccc3Cl)o2)C2CC2)cc1` as the compound, how does the CC50 [9] read?
A: 48.5 µM (active)

Q: What about the IC50 [10] of the same compound?
A: 18.8 µM (active)

Q: For `Cc1cccc(N/N=C(\C#N)S(=O)(=O)C(C)(C)C)c1`, which IC50 [16] is on record?
A: 19 µM (active)

Q: Which AC50 [17] does the source give for `C/C=C/c1ccc([C@H]2[C@@H](CO)N(CC3CCCCC3)[C@H]2CNC(C)C)cc1` here?
A: 5.66 µM (active)

Q: Which AC50 [4] does the source give for `CSc1ncnc2c1ncn2CC(=O)[C@H]1CC[C@H]2[C@H]3CCC4=CC(=O)CC[C@@]4(C)[C@@H]3CC[C@@]12C` here?
A: 3.16 µM (inconclusive)

Q: For `O=S(=O)(Nc1cccc(-c2ccc(N3CCOCC3)nn2)c1)c1cc(Cl)ccc1Cl`, which CC50 [9] is on record?
A: 23.5 µM (active)

Q: And the IC50 [10]?
A: 8.9 µM (active)

Q: Which IC50 [18] does the source give for `CC(=O)OCCNc1cc(N2CCN(C)CC2)c2noc3c2c1C(=O)c1ccccc1-3` here?
A: 24.1 µM (active)

Q: What about the Ki [2] of the same compound?
A: > 66.7 µM (inactive)

Q: And the IC50 [19]?
A: 117 µM (active)

Q: With `COc1ccc(CNC(=O)Cc2c(C(=O)O)[nH]c3ccccc23)cc1` as the compound, how does the IC50 [16] read?
A: 35.6 µM (active)

Q: Which AC50 [7] does the source give for `C=CCNC1=C(Nc2ccccc2)C(=O)c2ccccc2C1=O` here?
A: > 70 µM (inactive)

Q: What about the AC50 [8] of the same compound?
A: > 70 µM (inactive)

Q: For `COc1ccc(S(=O)(=O)Nc2ccc3c(c2)C(=O)N([C@H](C)CO)C[C@@H](C)[C@@H](CN(C)S(=O)(=O)c2ccc(Cl)cc2)OCCCC[C@@H](C)O3)cc1`, which AC50 [17] is on record?
A: 0.742 µM (active)
